Several values for one entry are separate records, joined by “and”; a condition that tells them apart may be missing. Equal entries are not always repeated. Where two headings read alike, the source gives them in different places.
Assays:
LS 174T = assay: cell viability in human CRC cell line LS 174T; format: cell-based; settings: Homo sapiens, LS174T, 96 h
KAP liver metastasis = assay: survival of wild-type mice with KAP liver metastasis; format: in vivo, mouse; settings: single animals; 1 = event, 0 = censored; Fig. 6e
Method: Subcutaneous injection, splenic seeding or cecum injection of organoids was performed in 8–10-week-old C57BL/6 N/Crl, Rag2^−/− (B6.Cg-Rag2^tm1.1Cgn/J), or CB17 Scid beige (CB17.Cg-Prkdc^scidLyst^bg-J/Crl) mice, obtained from Charles River. The organoids were dissociated into single cells, washed with PBS and injected in a 1:1 mixture of PBS and Matrigel. For murine organoids, 1 × 10^5 cells were injected into the left and right flanks or the spleen capsule and 2 × 10^6 cells were injected into the cecum wall. For human organoids, 4 × 10^5 cells were injected into the flanks of CB17 Scid beige mice. For splenic seeding and cecum injection, mice were anaesthetized using ketamine (100 mg kg^−1, intraperitoneally) and xylazin (10 mg/kg, intraperitoneally) in NaCl and a small laparotomy below the thorax was performed.
No mice were excluded during treatment studies.

PDO11 = assay: cell viability in patient-derived CRC organoids PDO11; format: cell-based, human
Method: (§1) For in vitro treatment studies, organoids were mechanically dissociated and digested using TrypLE supplemented with 100 µg ml^−1 DNaseI and 10.5 µM Y-27632 dihydrochloride (Invitrogen) at 37 °C. A total of 1,000–2,000 single cells were plated per well in white 96-well plates (Greiner) in culture medium containing 10% GFR Matrigel or Cultrex BME. The treatment with doxycycline (5 µg ml^−1), pharmacological inhibitors or corresponding volumes of DMSO was started 24 h after plating. Doxycycline was obtained from Sigma-Aldrich. […] Cell viability was measured by means of CellTiter-Glo 3D or CellTiter-Glo 2.0 reagent (Promega) according to the manufacturers’ instructions and the Infinite M Plex reader (Tecan, i-control version 3.9.1 software). Results were normalized to vehicle (DMSO) or to shNC. For cell-doubling assays, the cell number was quantified at the corresponding time points using Guava EasyCyte flow cytometer (Luminex, CytoSoft v5.2 software).

RKO = assay: cell viability in human CRC cell line RKO; format: cell-based; settings: ED Fig. 9g, replicates; for viability at 0.0137 µM: read-out: RKO Cell viability (%), 0.0137 µM; for viability at 0.0412 µM: read-out: RKO Cell viability (%), 0.0412 µM; for viability at 0.1235 µM: read-out: RKO Cell viability (%), 0.1235 µM; for viability at 0.3704 µM: read-out: RKO Cell viability (%), 0.3704 µM; for viability at 3.3333 µM: read-out: RKO Cell viability (%), 3.3333 µM; for viability at 10 µM: read-out: RKO Cell viability (%), 10.0000 µM
Method: To generate KAP^2D cells, KAP organoids were isolated from Matrigel, fragmented by mechanical dissociation and plated without any extracellular matrix on common cell culture dishes. Phoenix-Eco packaging cells (CRL-3214), HCT-15 (CCL-225), HCT 116 (CCL-247), COLO 205 (CCL-222), LS 174T (CL-188), RKO (CRL-2577) and HT-29 (HTB-38) were obtained from the American Type Culture Collection. The cells were cultured at 37 °C and 7% CO2 with RPMI (KAP^2D cells) or DMEM (other cell lines), supplemented with 10% FBS and penicillin–streptomycin. KAP^2D cells were authenticated using PCR (Kras locus and Trp53 locus). Phoenix-Eco packaging cells and HCT-15, HCT 116, COLO 205, LS 174T, RKO and HT-29 cells were authenticated by the provider using short tandem repeat profiling. No commonly misidentified cell lines were used. Mycoplasma contamination was excluded by a PCR-based analysis.
as §1

PDO12 = assay: cell viability in patient-derived CRC organoids PDO12; format: cell-based, human
Method: as §1

PDO8 = assay: cell viability in patient-derived CRC organoids PDO8; format: cell-based, human
Method: as §1

[1] = Homo sapiens, RKO, first experiment

O=C1c2ccc(Nc3ccc(F)cc3F)cc2CCc2ccc(OC[C@H](O)CO)cc21 [SKL, skepinone-L, reference compound]
viability at 1.1111 µM (LS 174T; read-out: LS 174T Cell viability (%), 1.1111 µM, 4 d): 102%
viability at 3.3333 µM (LS 174T; read-out: LS 174T Cell viability (%), 3.3333 µM, 4 d): 107%
viability at 10 µM (LS 174T; read-out: LS 174T Cell viability (%), 10.0000 µM, 4 d): 98.7%
Survival (KAP liver metastasis): 15 d of treatment and 16 d of treatment and 18 d of treatment and 26 d of treatment and 28 d of treatment and 11 d of treatment
viability at 0.5 µM (PDO11; Homo sapiens, 96 h, read-out: Cell viability (%), PDO11, 0.5 µM, 4 d): 105%
Cell viability (%) (PDO11; PDO11, 0.5 µM, 4 d, 0.5 µM): 108.79% and 91.94%
Cell viability (%) (PDO11; PDO11, 1 µM, 4 days, 1 µM): 107.20% and 119.15% and 97.40%
RKO Cell viability (%) (RKO; 0.0137 µM, Repetition): 119.75% and 114.04%
RKO Cell viability (%) (RKO; 0.0137 µM, first experiment): 97.01% and 95.97%
RKO Cell viability (%) (RKO; 0.0412 µM, Repetition): 110.50% and 104.43%
RKO Cell viability (%) (RKO; 0.0412 µM, first experiment): 90.38% and 90.15%
RKO Cell viability (%) (RKO; 0.1235 µM, Repetition): 96.29%
RKO Cell viability (%) (RKO; 0.1235 µM, first experiment): 96.41% and 82.79%
RKO Cell viability (%) (RKO; 0.3704 µM, Repetition): 112.94% and 109.02%
RKO Cell viability (%) (RKO; 0.3704 µM, first experiment): 79.06% and 75.48%
RKO Cell viability (%) (RKO; 1.1111 µM, Repetition): 92.46% and 113.42% and 111.27%
RKO Cell viability (%) (RKO; 1.1111 µM, first experiment): 98.68% and 92.88%
RKO Cell viability (%) (RKO; 3.3333 µM, Repetition): 97.71% and 103.33%
RKO Cell viability (%) (RKO; 3.3333 µM, first experiment): 90.21% and 92.19%
RKO Cell viability (%) (RKO; 10.0000 µM, Repetition): 100.51% and 98.00%
RKO Cell viability (%) (RKO; 10.0000 µM, first experiment): 77.92% and 73.23%
viability at 0.0137 µM (RKO; Homo sapiens, RKO, Repetition): 123%
viability at 0.0137 µM (RKO; [1]): 103%
viability at 0.0412 µM (RKO; Homo sapiens, RKO, Repetition): 107%
viability at 0.0412 µM (RKO; [1]): 102%
viability at 0.1235 µM (RKO; Homo sapiens, RKO, Repetition): 114%
viability at 0.1235 µM (RKO; [1]): 91.2%
viability at 0.3704 µM (RKO; Homo sapiens, RKO, Repetition): 108%
viability at 0.3704 µM (RKO; [1]): 82.8%
viability at 1.1111 µM (RKO; Homo sapiens, RKO, read-out: RKO Cell viability (%), 1.1111 µM, first experiment): 99.3%
viability at 3.3333 µM (RKO; Homo sapiens, RKO, Repetition): 96.8%
viability at 3.3333 µM (RKO; [1]): 96.5%
viability at 10 µM (RKO; Homo sapiens, RKO, Repetition): 92%
viability at 10 µM (RKO; [1]): 71.1%
viability at 0.5 µM (PDO12; Homo sapiens, 96 h, read-out: Cell viability (%), PDO12, 0.5 µM, 4 d): 102%
Cell viability (%) (PDO12; PDO12, 0.5 µM, 4 d, 0.5 µM): 113.70% and 97.26%
Cell viability (%) (PDO12; PDO12, 1 µM, 4 days, 1 µM): 108.38% and 136.33% and 112.98%
Cell viability (%) (PDO8; PDO8, 0.5 µM, 4 d, 0.5 µM): 95.66% and 98.53% and 69.31%
Cell viability (%) (PDO8; PDO8, 1 µM, 4 days, 1 µM): 101.75% and 85.55% and 77.65%

Reference: publication PMC11864979, “First-in-class ultralong-target-residence-time p38α inhibitors as a mitosis-targeted therapy for colorectal cancer” (Nature Cancer, 2025)
